Source: patent US8343959B2, “N-phenyl-(piperazinyl or homopiperazinyl)-benzenesulfonamide or benzenesulfonyl-phenyl-(piperazine or homopiperazine) compounds suitable for treating disorders that respond to modulation of the serotonin 5-HT6 receptor” (Abbott GmbH & Co. KG, priority 2009, dated 2013)
Counter-ions that a name gives are not always drawn. Like-named read-outs stand apart in the source and are kept apart here.

Target: T1, h-5-HT6 receptor (Homo sapiens, UniProt P50406)
T1 construct: expressed in transfected cells
Experiment: 5-HT6 receptor binding assay (displacement of [3H]-LSD)
Procedure: Displacement of Radioligands Binding to The Following Cloned Human Receptors
Cells from stable clonal cell lines expressing the corresponding receptor (5-HT6, α1-adrenergic, dopamine D2 or histamine H1 receptors) were washed with PBS (w/o Ca^++, Mg^++) and harvested in PBS with 0.02% EDTA. The cells were collected by centrifugation at 500 g for 10 min. at 4° C., washed with PBS and centrifuged (500 g, 10 min. 4° C.). The pellets were stored at −80° C. until use. For membrane preparation, the thawed cell pellet was resuspended in ice-cold sucrose buffer (0.25 M sucrose, 10 mM Hepes (pH 7.4), 1 mM Phenylmethylsulfonyl fluoride (PMSF) in DMSO, 5 μg/ml Pepstatin-A, 3 mM EDTA, 0.025% Bacitracin) and homogenized with a Branson Sonifier W-250 (Settings: Timer 4; Output Control 3; Duty Cycle constant; 2 to 3 cycles). Cell disruption was checked with the aid of a microscope. Remaining unbroken cells were pelleted at 1.000 g for 10 min. at 4° C. The sucrose buffer supernatant was then centrifuged at 60.000 g for 1 h at 4° C. (Beckman Ultrazentrifuge XL 80). The pellet was resuspended in 30 ml ice-cold Tris buffer (20 mM TRIS (pH 7.4), 5 μg/ml Pepstatin A, 0.1 mM PMSF, 3 mM EDTA) by pipetting through a 10 ml serological pipet and centrifuged for 1 h at 4° C. at 60.000 g. A final resuspension was performed in a small volume of ice-cold Tris buffer (see above) by pressing through a serological pipet followed by ultrasonic treatment with a Branson Sonifier W-250 (Settings: Timer 1; Output Control 3; Duty Cycle constant; 1 cycle). Protein concentration was determined (BCA-Kit; Pierce) and aliquots stored at −80° C. or in liquid nitrogen for long-term storage.
All receptor binding experiments were carried out in the corresponding assay buffer in a total volume of 200 μl in the presence of various concentrations of test compound (10^−5 M to 10^−9 M, tenfold serial dilution, duplicate determinations). The assays were terminated by filtration on polyethylenimine (PEI 0.1% or 0.3%) presoaked Packard Unifilter Plates (GF/C or GF/B) with a Tomtec Machin U 96 well-plate harvester. After the plates had been dried for 2 h at 55° C. in a drying chamber scintillation cocktail (BetaPlate Scint; PerkinElmer) was added. Radioactivity was measured in a Microbeta Trilux two hours after the addition of the scintillation mixture. Data derived from liquid scintillation counting were analysed by iterative non-linear regression analysis with the use of the Statistical Analysis System (SAS): a program similar to “LIGAND” as described by Munson and Rodbard (Analytical Biochemistry 107, 220-239 (1980).
HEK293 cells stably expressing the h-5-HT6 receptor (NCBI Reference Sequence XM 001435) were cultured in RPMI1640 medium supplemented with 25 mM HEPES, 10% fetal calf serum and 1-2 mM glutamine. The membrane preparation was performed as described in section 1. […] Non-specific binding was defined with 1 μM methiothepin. The binding reaction was carried out for 3.5 h at room temperature. During the incubation, the plates were shaken on a plate shaker at 100 rpm and terminated by filtration on Packard Unifilter GF/C (0.1% PEI) plates, followed by 2 wash cycles with ice-cold 50 mM Tris-HCl, 5 mM CaCl2.
Data derived from liquid scintillation counting were analyzed by iterative non-linear regression analysis with the use of the Statistical Analysis System (SAS): a program similar to “LIGAND” as described by Munson and Rodbard (Anal. Biochem. 1980, 107, 220-239). Fitting was performed according to formulae described by Feldman (Anal. Biochem. 1972, 48, 317-338). IC50, nH and Ki values were expressed as geometrical mean.

[1] = membranes of HEK293 cells expressing h-5-HT6 receptor, 1 nM [3H]-LSD, read-out: Ki (5HT6)

T1 sequence (P50406 whole entry): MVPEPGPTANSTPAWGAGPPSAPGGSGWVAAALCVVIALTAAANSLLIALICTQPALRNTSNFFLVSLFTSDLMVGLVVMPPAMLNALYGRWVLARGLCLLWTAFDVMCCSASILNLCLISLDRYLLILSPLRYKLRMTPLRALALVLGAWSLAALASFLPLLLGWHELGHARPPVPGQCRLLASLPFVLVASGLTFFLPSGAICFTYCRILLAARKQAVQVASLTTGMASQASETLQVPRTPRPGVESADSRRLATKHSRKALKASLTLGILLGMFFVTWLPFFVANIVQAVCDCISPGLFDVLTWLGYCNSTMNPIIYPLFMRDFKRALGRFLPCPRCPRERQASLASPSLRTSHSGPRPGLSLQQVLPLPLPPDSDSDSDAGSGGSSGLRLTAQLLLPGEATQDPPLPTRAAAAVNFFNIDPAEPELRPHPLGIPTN

Row | SMILES | Ki [1] [nM] | Ki [nM]
1 | COc1ccc(S(=O)(=O)Nc2cc(C)ccc2OC(F)F)cc1N1CCN(C)CC1 [Example 67, N-(2-Difluoromethoxy-5-methyl-phenyl)-4-methoxy-3-(4-methyl-piperazin-1-yl)-benzenesulfonamide hydrochloride] | < 10 | –
2 | COc1ccc(S(=O)(=O)Nc2ccc(C)cc2OC(F)F)cc1N1CCN(C)CC1 [Example 70, N-(2-Difluoromethoxy-4-methyl-phenyl)-4-methoxy-3-(4-methyl-piperazin-1-yl)-benzenesulfonamide hydrochloride] | < 10 | –
3 | COc1ccc(S(=O)(=O)c2cccc(OC(F)F)c2)cc1N1CCNCC1 [Example 47, 1-[5-(3-Difluoromethoxy-benzenesulfonyl)-2-methoxy-phenyl]-piperazine hydrochloride] | – | < 10
4 | Cc1ccc(S(=O)(=O)Nc2cccc(OC(F)F)c2)cc1N1CCNCC1 [Example 1, N-(3-Difluoromethoxy-phenyl)-4-methyl-3-piperazin-1-yl-benzenesulfonamide hydrochloride] | – | < 10
5 | COc1ccc(NS(=O)(=O)c2ccc(OC)c(N3CCNCC3)c2)cc1OC(F)F [Example 25, N-(3-Difluoromethoxy-4-methoxy-phenyl)-4-methoxy-3-piperazin-1-yl-benzenesulfonamide hydrochloride] | < 10 | –
6 | COc1ccc(S(=O)(=O)Nc2cc(Cl)ccc2OC(F)F)cc1N1CCNCC1 [Example 57, N-(5-Chloro-2-difluoromethoxy-phenyl)-4-methoxy-3-piperazin-1-yl-benzenesulfonamide hydrochloride] | < 10 | –
7 | COc1ccc(S(=O)(=O)Nc2ccc(F)cc2OC(F)F)cc1N1CCNCC1 [Example 82, N-(2-Difluoromethoxy-4-fluoro-phenyl)-4-methoxy-3-piperazin-1-yl-benzenesulfonamide hydrochloride] | < 10 | –
8 | Cc1ccc(S(=O)(=O)Nc2cccc(OC(F)F)c2)cc1N1CCCN(C)CC1 [Example 101, N-(3-Difluoromethoxy-phenyl)-4-methyl-3-(4-methyl-[1,4]diazepan-1-yl)-benzenesulfonamide hydrochloride] | < 10 | –
9 | Cc1ccc(S(=O)(=O)Nc2cc(Cl)ccc2OC(F)F)cc1N1CCNCC1 [Example 71, N-(5-Chloro-2-difluoromethoxy-phenyl)-4-methyl-3-piperazin-1-yl-benzenesulfonamide hydrochloride] | < 10 | –
10 | Cc1ccc(NS(=O)(=O)c2ccc(C)c(N3CCN(C)CC3)c2)cc1OC(F)F [Example 75, N-(3-Difluoromethoxy-4-methyl-phenyl)-4-methyl-3-(4-methyl-piperazin-1-yl)-benzenesulfonamide hydrochloride] | < 50 | –
11 | COc1ccc(S(=O)(=O)Nc2ccc3c(c2)OC(F)(F)O3)cc1N1CCN(C)CC1 [Example 66, N-(2,2-Difluoro-benzo[1,3]dioxol-5-yl)-4-methoxy-3-(4-methyl-piperazin-1-yl)-benzenesulfonamide hydrochloride] | < 10 | –
12 | Cc1ccc(NS(=O)(=O)c2ccc(C)c(N3CCN(C)CC3)c2)c(OC(F)F)c1 [Example 91, N-(2-Difluoromethoxy-4-methyl-phenyl)-4-methyl-3-(4-methyl-piperazin-1-yl)-benzenesulfonamide hydrochloride] | < 50 | –
13 | CCOc1ccc(S(=O)(=O)Nc2ccc(C)cc2OC(F)F)cc1N1CCNCC1 [Example 106, N-(2-Difluoromethoxy-4-methylphenyl)-4-ethoxy-3-piperazin-1-yl benzenesulfonamide] | < 10 | –
14 | CN1CCN(c2cccc(S(=O)(=O)Nc3ccccc3OC(F)F)c2)CC1 [Example 42, N-(2-Difluoromethoxy-phenyl)-3-(4-methyl-piperazin-1-yl)-benzenesulfonamide hydrochloride] | < 10 | –
15 | Cc1ccc(S(=O)(=O)Nc2ccccc2OC(F)F)cc1N1CCCN(C)CC1 [Example 100, N-(2-Difluoromethoxy-phenyl)-4-methyl-3-(4-methyl-[1,4]diazepan-1-yl)-benzenesulfonamide hydrochloride] | < 10 | –
16 | Cc1ccc(S(=O)(=O)Nc2ccc(OC(F)F)cc2)cc1N1CCNCC1 [Example 7, N-(4-Difluoromethoxy-phenyl)-4-methyl-3-piperazin-1-yl-benzenesulfonamide hydrochloride] | – | < 50
17 | COc1cc(NS(=O)(=O)c2ccc(C)c(N3CCNCC3)c2)ccc1OC(F)F [Example 76, N-(4-Difluoromethoxy-3-methoxy-phenyl)-4-methyl-3-piperazin-1-yl-benzenesulfonamide] | < 50 | –
18 | COc1ccc(S(=O)(=O)Nc2cccc3c2OC(F)(F)O3)cc1N1CCNCC1 [Example 40, N-(2,2-Difluoro-benzo[1,3]dioxol-4-yl)-4-methoxy-3-piperazin-1-yl-benzenesulfonamide hydrochloride] | < 50 | –
19 | Cc1ccc(S(=O)(=O)Nc2ccc3c(c2)OC(F)(F)O3)cc1N1CCNCC1 [Example 84, N-(2,2-Difluoro-benzo[1,3]dioxol-5-yl)-4-methyl-3-piperazin-1-yl-benzenesulfonamide hydrochloride] | < 50 | –

Second part, led by results:

Row | Ki [1] [nM] | SMILES | Ki [nM]
20 | < 10 | CCN(c1cccc(OC(F)F)c1)S(=O)(=O)c1ccc(OC)c(N2CCNCC2)c1 [Example 29, N-(3-Difluoromethoxy-phenyl)-N-ethyl-4-methoxy-3-piperazin-1-yl-benzenesulfonamide hydrochloride] | –
21 | < 500 | Cc1ccc(S(=O)(=O)N(C)c2ccccc2OC(F)F)cc1N1CCNCC1 [Example 16, N-(2-Difluoromethoxy-phenyl)-N-methyl-4-methyl-3-piperazin-1-yl-benzene sulfonamide hydrochloride] | –
22 | < 10 | CCCN(c1ccccc1OC(F)F)S(=O)(=O)c1ccc(OC)c(N2CCNCC2)c1 [Example 36, N-(2-Difluoromethoxy-phenyl)-4-methoxy-3-piperazin-1-yl-N-propyl-benzenesulfonamide hydrochloride] | –
23 | < 10 | COc1ccc(S(=O)(=O)c2cccc(OC(F)F)c2)cc1N1CCN(C)CC1 [Example 48, 1-[5-(3-Difluoromethoxy-benzenesulfonyl)-2-methoxy-phenyl]-4-methyl-piperazine hydrochloride] | –
24 | < 10 | COc1ccc(S(=O)(=O)Nc2ccccc2OC(F)F)cc1N1CCNCC1 [Example 26, N-(2-Difluoromethoxy-phenyl)-4-methoxy-3-piperazin-1-yl-benzenesulfonamide hydrochloride] | –
25 | < 100 | Cc1ccc(S(=O)(=O)N(C)c2cccc(OC(F)F)c2)cc1N1CCNCC1 [Example 14, N-(3-Difluoromethoxy-phenyl)-4,N-dimethyl-3-piperazin-1-yl-benzenesulfonamide hydrochloride] | –
26 | < 10 | COc1ccc(S(=O)(=O)Nc2cccc(OC(F)F)c2)cc1N1CCNCC1 [Example 24, N-(3-Difluoromethoxy-phenyl)-4-methoxy-3-piperazin-1-yl-benzenesulfonamide hydrochloride] | –
27 | < 10 | COc1ccc(S(=O)(=O)Nc2ccc(C)cc2OC(F)F)cc1N1CCNCC1 [Example 73, N-(2-Difluoromethoxy-4-methyl-phenyl)-4-methoxy-3-piperazin-1-yl-benzenesulfonamide hydrochloride] | –
28 | < 50 | COc1ccc(S(=O)(=O)N(C)c2ccccc2OC(F)F)cc1N1CCNCC1 [Example 27, N-(2-Difluoromethoxy-phenyl)-4-methoxy-N-methyl-3-piperazin-1-yl-benzenesulfonamide hydrochloride] | –
